Reference: patent US20240033373A1, “TARGETED, INTRACELLULAR DELIVERY OF THERAPEUTIC PEPTIDES USING SUPRAMOLECULAR NANOMATERIALS” (The University of Chicago, priority 2020, published 2024)
Where two headings read alike, the source gives them in different places.

Key:
[1] = test system: DLBCL cell lines; assay: Cell death assay (CellTiter-Glo 2.0), several lines stated together; type: cell-based, human
Procedure: Plotted points are means of duplicates+/−S.E.M., normalized to an untreated control that received the same pre-treatment, and fitted using nonlinear regression.
(§1) Cell Death Assays Treatments were prepared in 96-well plates in 50 μL at 2× concentration. Cells were suspended at 0.2 million cells per mL, and 50 μL (10,000 cells) were added to each well and pipette-mixed. The plates were incubated for 24-72 hours, depending on the experiment, then 100 μL of CellTiter-Glo 2.0 (Promega) was added and pipette-mixed, followed by luminescence reading (SpectraMax iD5, Molecular Devices).

[2] = pipettable melt of PEG-SS—PPS and PEG(500)DME
[3] = test system: OCI-Ly3; assay: Cell death assay (CellTiter-Glo 2.0); type: cell-based, human; conditions: 24 h ATSP-7041 pre-treatment, then BH3 mimetic
Procedure: as §1
(§2) First, SU-DHL-5 was treated with equivalent doses of SAH-MS1-18 either as a free drug, inside of αCD19- or αOspA-PSOMs, or on the outside of empty αCD19- or αOspA-PSOMs (FIG. 14A). […] Other DLBCL cell lines, including OCILy1, OCI-Ly3, and OCI-Ly8, were treated (FIG. 14B).

[4] = test system: SU-DHL-5; assay: Cell death assay (CellTiter-Glo 2.0); type: cell-based, human; conditions: 24 h ATSP-7041 pre-treatment, then BH3 mimetic
Procedure: as §1, §2

[5] = 24 h ATSP-7041 pre-treatment vs vehicle, washed, then BH3 mimetic, WTp53 lines

Row | Compound | change in cell death sensitivity after p53-reactivation [1, 5] | change in cell death sensitivity after p53-reactivation [1] | solubility in polymer melt [2] | change in cell death sensitivity after p53-reactivation [3] | change in cell death sensitivity after p53-reactivation [4]
1 | Cc1c(-c2ccc(N3CCc4cccc(C(=O)Nc5nc6ccccc6s5)c4C3)nc2C(=O)O)cnn1CC12CC3CC(CC(C3)C1)C2 [A-1331852] | no notable change in sensitivity |  |  |  | 
2 | CC1(C)CCC(CN2CCN(c3ccc(C(=O)NS(=O)(=O)c4ccc(NCC5CCOCC5)c([N+](=O)[O-])c4)c(Oc4cnc5[nH]ccc5c4)c3)CC2)=C(c2ccc(Cl)cc2)C1 [ABT-199] | no notable change in sensitivity |  |  |  | 
3 | Cc1c(-c2c(-c3ccc(F)o3)sc3ncnc(O[C@H](Cc4ccccc4OCc4ccnn4CC(F)(F)F)C(=O)O)c23)ccc(OCCN2CCN(C)CC2)c1Cl [S63845] |  | much more sensitive | highly soluble | made much more sensitive | made much more sensitive
